Results from patent US9995734B2, “Human T cell line assay for evaluating the immunologic identity of glatiramer acetate preparations” (Mylan Inc., priority 2013, dated 2018).

Experiments:
Donor 1 COP T-Cell Lines = test: ATP proliferation assay (CellTiter Glo), Donor 1 COP T-cell lines, incl. reactivity to non-canonical GA peptides; format: cell-based, human; conditions: for ATP Proliferation Assay, Mean: Day 56, second assay; for luminescent ATP proliferation assay, mean: no antigen 5673 (Table 9); for Proliferation (luminescent ATP assay), Mean: Day 56 of culturing
Procedure: Proliferation was evaluated by measuring ATP content using a luminescent method (CellTiter Glo Luminescent Cell Viability Assay, Promega, Madison, Wis., cat. #G7571) or by measuring BrdU uptake by ELISA (Millipore cat. #2752), in both cases following kit instructions. A split well format was used. Cells in each well were resuspended and 65 μl transferred to the wells of each of two new U-bottom 96-well plates, to generate the replicate plates. For the initial screening, the original 96-well plate received mitomycin-treated autologous PBMC as APC plus 10 μg/mL antigen (GA). A first replicate plate received 100 μl., mitomycin-treated PBMC alone (2×10^5), and no antigen, and a second replicate plate received 100 μL mitomycin-treated PBMC plus GA at a final concentration of 10 μg/mL. Therefore, all three plates received autologous APC (PBMC) treated with mitomycin C to prevent cell division. […] The latter two plates were incubated for 3 days at 37° C., 6% CO2 before adding CellTiter Glo or BrdU and measuring signal. IL-2 was added at 10 U/mL to the original 96-well plate for expansion on Day 17. For subsequent screenings, mitomycin-treated EBV-transformed autologous B-LCL (2×10^5 to 5×10^5 cells/mL) were used as APC.
COP-responsive T-cell lines were obtained from Donor 1. In the initial stimulation, isolated PBMC were plated at 1×10^5 cells per well (5×10^5 cells/mL) with 10 μg/mL Copaxone and cultured as described above. IL-2 was added to all wells on Days 4 and 7 of culture, and the wells screened for reactivity on Day 14 using a luminescent proliferation assay in split well format. The original plate was restimulated, and IL-2 added 4 days after restimulation.
T-cell line 222-2D8, generated from Donor 1 by initial stimulation with COP, was shown in at least two experiments to proliferate comparably following restimulation with GMA and COP. […] ATP levels were measured at 48 hours after stimulation. The control in the GMA series was no antigen, and the control in the COP series was MBP. The response to GMA in comparison to COP at the 10 μg/mL dose in this assay was 103.4%.
In a second ATP proliferation assay, carried out on Day 56 or culturing following stimulation with 1, 3, or 10 μg/mL of GMA or COP, the response to GMA in comparison to COP at the 10 μg/mL dose was 107.1%.
T-cell line 222-2F1, generated from Donor 222 by initial stimulation with COP, was shown in at least two experiments to proliferate comparably following restimulation with GMA and COP. […] ATP levels were measured at 48 hours after stimulation. The control in the GMA series was no antigen, and the control in the COP series was MBP. The response to GMA in comparison to COP at the 10 μg/mL dose in this assay was 85.1%.
On Day 56 of culturing, after six total rounds of stimulation, cell line 222-2F12 was assayed for proliferation in response to stimulation with GA and a series of non-canonical peptides. For the assay, 0, 3, 10, or 30 μg/mL of each of peptides GL 14, GLT 631, GAT 111, and GAT 631, COP, and GMA, were added to the T-cell lines at 1×10^5 cells/mL, in the presence of mitomycin C-treated autologous B-LCL. Proliferation was measured by luminescent ATP assay. Cell line 222-2F12 responded to GL 14 at 3 μg/mL, and not to the other non-canonical GA peptides tested. The response to GMA in comparison to COP at the 10 μg/mL dose in this assay was 99.4%.
The cultures were restimulated on days 46, 56, 67 and 75. On Day 56, cell lines 222-2D8, 222-1H12, 222-2F12, 222-2B8, 222-105, 222-2B11, and 222-2E1 again were tested for reactivity to stimulation with 1, 3, or 10 μg/mL of GMA or COP in a proliferation assay. ATP levels were measured in all seven cell lines at 48 hours (results in FIGS. 5A-G) after stimulation. The control in the GMA series was no antigen, and the control in the COP series was MBP. […]

Donor 4 COP T-Cell Lines = test: ATP proliferation assay (CellTiter Glo), Donor 4 COP T-cell lines, incl. reactivity to non-canonical GA peptides; format: cell-based, human; conditions: for luminescent ATP proliferation assay, Mean RLU: 205-1H7, Day 59, 4 days incubation, 0 μg/mL 3382; for Mean, ATP proliferation assay: Cell Line 205-1F4

In the case of glatiramer acetate [COP], the ATP proliferation assay (Donor 1 COP T-Cell Lines; 222-1C5, 10 μg/mL, Day 14, control 7087) was 14906 RLU, the ATP proliferation assay (Donor 1 COP T-Cell Lines; 222-1F8, 10 μg/mL, Day 14, control 2308) was 6519 RLU and the ATP proliferation assay (Donor 1 COP T-Cell Lines; 222-1G8, 10 μg/mL, Day 14, control 4030) was 8308 RLU. For the same substance, the ATP proliferation assay (Donor 1 COP T-Cell Lines; 222-1H12, 10 μg/mL, Day 14, control 8141) was 23836 RLU, the ATP proliferation assay (Donor 1 COP T-Cell Lines; 222-2B8, 10 μg/mL, Day 14, control 5543) was 13600 RLU and the ATP proliferation assay (Donor 1 COP T-Cell Lines; 222-2B11, 10 μg/mL, Day 14, control 6340) was 16460 RLU. It also gave an ATP proliferation assay (Donor 1 COP T-Cell Lines; 222-2C1, 10 μg/mL, Day 14, control 8350) of 20166 RLU, an ATP proliferation assay (Donor 1 COP T-Cell Lines; 222-2C3, 10 μg/mL, Day 14, control 6839) of 14045 RLU and an ATP proliferation assay (Donor 1 COP T-Cell Lines; 222-2C5, 10 μg/mL, Day 14, control 4695) of 9577 RLU. For the same substance, the ATP proliferation assay (Donor 1 COP T-Cell Lines; 222-2D2, 10 μg/mL, Day 14, control 7135) was 16271 RLU, the ATP proliferation assay (Donor 1 COP T-Cell Lines; 222-2D8, 10 μg/mL, Day 14, control 13024) was 26495 RLU and the “ATP Proliferation Assay, Mean” value (Donor 1 COP T-Cell Lines; 222-2D8, 1 μg/mL (Table 7)) was 7229. For the same substance, the “ATP Proliferation Assay, Mean” value (Donor 1 COP T-Cell Lines; 222-2D8, 3 μg/mL (Table 7)) was 134127, the “ATP Proliferation Assay, Mean” value (Donor 1 COP T-Cell Lines; 222-2D8, 10 μg/mL (Table 7)) was 146092 and the ATP proliferation assay (Donor 1 COP T-Cell Lines; 222-2D8, Day 56, 48 hours after stimulation, 1 μg/mL (Table 6)) was 4888. It also gave an ATP proliferation assay (Donor 1 COP T-Cell Lines; 222-2D8, Day 56, 48 hours after stimulation, 3 μg/mL (Table 6)) of 6392, an ATP proliferation assay (Donor 1 COP T-Cell Lines; 222-2D8, Day 56, 48 hours after stimulation, 10 μg/mL (Table 6)) of 12161 and an ATP proliferation assay (Donor 1 COP T-Cell Lines; 222-2E1, 10 μg/mL, Day 14, control 8035) of 17064 RLU. The ATP proliferation assay (Donor 1 COP T-Cell Lines; 222-2F12, 10 μg/mL, Day 14, control 9703) was 28022 RLU, the “luminescent ATP proliferation assay, mean” value (Donor 1 COP T-Cell Lines; 222-2F12, Day 56, 3 μg/mL) was 233087 and the “luminescent ATP proliferation assay, mean” value (Donor 1 COP T-Cell Lines; 222-2F12, Day 56, 10 μg/mL) was 230009. For the same substance, the “luminescent ATP proliferation assay, mean” value (Donor 1 COP T-Cell Lines; 222-2F12, Day 56, 30 μg/mL) was 118769, the ATP proliferation assay (Donor 1 COP T-Cell Lines; 222-2F12, Day 56, 48 hours after stimulation, 1 μg/mL (Table 8)) was 5281 and the ATP proliferation assay (Donor 1 COP T-Cell Lines; 222-2F12, Day 56, 48 hours after stimulation, 3 μg/mL (Table 8)) was 8684. It also gave an ATP proliferation assay (Donor 1 COP T-Cell Lines; 222-2F12, Day 56, 48 hours after stimulation, 10 μg/mL (Table 8)) of 11747, an ATP proliferation assay (Donor 1 COP T-Cell Lines; 222-2G4, 10 μg/mL, Day 14, control 2566) of 6812 RLU and an ATP proliferation assay (Donor 1 COP T-Cell Lines; 222-2G12, 10 μg/mL, Day 14, control 3913) of 9899 RLU. The “Proliferation (luminescent ATP assay), Mean” value (Donor 1 COP T-Cell Lines; T-cell line 222-1H12, 3 μg/mL antigen, 0 μg/mL 5974) was 146874 RLU, the “Proliferation (luminescent ATP assay), Mean” value (Donor 1 COP T-Cell Lines; T-cell line 222-1H12, 10 μg/mL antigen, 0 μg/mL 5974) was 168163 RLU and the “Proliferation (luminescent ATP assay), Mean” value (Donor 1 COP T-Cell Lines; T-cell line 222-1H12, 30 μg/mL antigen, 0 μg/mL 5974) was 68492 RLU. The “Proliferation (luminescent ATP assay), Mean” value (Donor 1 COP T-Cell Lines; T-cell line 222-2F12, 3 μg/mL antigen, 0 μg/mL 5673) was 233087, the “Proliferation (luminescent ATP assay), Mean” value (Donor 1 COP T-Cell Lines; T-cell line 222-2F12, 10 μg/mL antigen, 0 μg/mL 5673) was 230009 and the “Proliferation (luminescent ATP assay), Mean” value (Donor 1 COP T-Cell Lines; T-cell line 222-2F12, 30 μg/mL antigen, 0 μg/mL 5673) was 118769. For the same substance, the “ATP proliferation signal relative to control” value (Donor 1 COP T-Cell Lines; fifteen Donor 1 COP T-cell lines of Table 5, 10 μg/mL) was “at least twice the signal as control”, the “luminescent ATP proliferation assay, Mean RLU” value (Donor 4 COP T-Cell Lines; 1 μg/mL) was 13131 RLU and the “luminescent ATP proliferation assay, Mean RLU” value (Donor 4 COP T-Cell Lines; 10 μg/mL) was 175652 RLU. The “luminescent ATP proliferation assay, Mean RLU” value (Donor 4 COP T-Cell Lines; 30 μg/mL) was 190750 RLU, the “Mean, ATP proliferation assay” value (Donor 4 COP T-Cell Lines; Day 50, 1 μg/mL) was 47254 and the “Mean, ATP proliferation assay” value (Donor 4 COP T-Cell Lines; Day 50, 3 μg/mL) was 169021. The “Mean, ATP proliferation assay” value (Donor 4 COP T-Cell Lines; Day 50, 10 μg/mL) was 213196, the “Mean, ATP proliferation assay” value (Donor 4 COP T-Cell Lines; Day 58, 3 μg/mL) was 21031 and the “Mean, ATP proliferation assay” value (Donor 4 COP T-Cell Lines; Day 58, 10 μg/mL) was 31423.
